# Laboratory results taken from patent US20040038222A1 (priority 2001, published 2004).
# System: C57BL/6J and C3H/HeJ primary bone marrow-derived macrophages
substance,measurement,value
brefeldin A [BFA],Effect of BFA alone on viability,no effect
same,Susceptibility of resistant macrophages to intoxication with LF in the presence of BFA,completely susceptible
